{
  "source": "patent US20240245783A1",
  "about": "“METALLO-BETA-LACTAMASE INHIBITOR” (priority 2021, published 2024)",
  "key": {"[1]": {"test_system": "Multidrug-resistant Pseudomonas aeruginosa strain MR4", "experiment": "Growth inhibition of Pseudomonas aeruginosa strain MR4 (Test Example 8)", "format": "cell-based", "conditions": "after 24 hours, compared with doripenem", "experimental": "Multidrug-resistant Pseudomonas aeruginosa strain MR4 was cultured with doripenem or compound 8, and the bacterial load was assessed by turbidity after 24 hours. FIG. 18 depicts the results."}, "[2]": {"test_system": "multidrug-resistant Pseudomonas aeruginosa", "experiment": "Growth suppression of multidrug-resistant Pseudomonas aeruginosa clinical isolates (Test Example 7)", "format": "cell-based", "conditions": "MEPM 2 μg/ml alone, compound 8 20 μM (15.5 μg/ml) alone, Combination = both, 3 wells", "experimental": "The effect of NODA-GA-conjugated doripenem (compound 8) on the susceptibility of a Pseudomonas aeruginosa clinical isolate to a carbapenem antibacterial agent was evaluated by the following method. The Pseudomonas aeruginosa clinical isolate was cultured overnight with shaking in LB medium. The bacterial solution was diluted to 1/1000 with LB medium, used as a test bacterial solution, and then seeded in a 96-well plate. Meropenem (Wako Pure Chemical Industries, Ltd.) was added to this bacterial solution in such a manner that the concentration was 2 μg/ml. The effect of NODA-GA-doripenem alone was also examined. The bacteria were cultured in an incubator at 37° C. for one day, and the growth at that time was measured by turbidity (655 nm).\nMEPM in Table 1 is meropenem (2 μg/ml) administered alone; NODA-GA-doripenem is compound 8 (20 μM; 15.5 μg/ml) administered alone; Combination means a combined use of meropenem (2 μg/ml) and compound 8 (20 μM; 15.5 μg/ml)."}},
  "data": [
    {"smiles": "C[C@@H](O)[C@H]1C(=O)N2C(C(=O)O)=C(S[C@@H]3CN[C@H](CNS(=O)(=O)NC(=O)CCC(C(=O)O)N4CCN(CC(=O)O)CCN(CC(=O)O)CC4)C3)[C@H](C)[C@H]12", "note": "(stereo partly drawn) [compound 8, NODA-GA-conjugated doripenem]", "values": [
      {"measurement": "anti-Pseudomonas aeruginosa effect (bacterial load by turbidity)", "setting": "[1]", "value": "significantly improved compared to that of doripenem"},
      {"measurement": "suppression of bacterial growth", "setting": "[2]; strain 808#1", "value": "X (x indicates that the number of wells in which suppression of bacterial growth was confirmed was 1 or less)"},
      {"measurement": "suppression of bacterial growth", "setting": "[2]; strain 808#2", "value": "X (x indicates that the number of wells in which suppression of bacterial growth was confirmed was 1 or less)"},
      {"measurement": "suppression of bacterial growth", "setting": "[2]; strain MR1", "value": "◯ (◯ indicates that bacterial growth was suppressed in all 3 wells)"},
      {"measurement": "suppression of bacterial growth", "setting": "[2]; strain MR2", "value": "◯ (◯ indicates that bacterial growth was suppressed in all 3 wells)"},
      {"measurement": "suppression of bacterial growth", "setting": "[2]; strain MR3", "value": "Δ (Δ indicates that bacterial growth was suppressed in 2 wells out of 3 wells)"},
      {"measurement": "suppression of bacterial growth", "setting": "[2]; strain MR4", "value": "Δ (Δ indicates that bacterial growth was suppressed in 2 wells out of 3 wells)"},
      {"measurement": "suppression of bacterial growth", "setting": "[2]; strain MR5", "value": "◯ (◯ indicates that bacterial growth was suppressed in all 3 wells)"},
      {"measurement": "suppression of bacterial growth", "setting": "[2]; strain MR6", "value": "Δ (Δ indicates that bacterial growth was suppressed in 2 wells out of 3 wells)"},
      {"measurement": "suppression of bacterial growth", "setting": "[2]; strain MR7", "value": "◯ (◯ indicates that bacterial growth was suppressed in all 3 wells)"},
      {"measurement": "suppression of bacterial growth", "setting": "[2]; strain MR8", "value": "X (x indicates that the number of wells in which suppression of bacterial growth was confirmed was 1 or less)"},
      {"measurement": "suppression of bacterial growth", "setting": "[2]; strain MR9", "value": "◯ (◯ indicates that bacterial growth was suppressed in all 3 wells)"},
      {"measurement": "suppression of bacterial growth", "setting": "[2]; strain MR10", "value": "Δ (Δ indicates that bacterial growth was suppressed in 2 wells out of 3 wells)"},
      {"measurement": "suppression of bacterial growth", "setting": "[2]; strain MR11", "value": "X (x indicates that the number of wells in which suppression of bacterial growth was confirmed was 1 or less)"},
      {"measurement": "suppression of bacterial growth", "setting": "[2]; strain MR12", "value": "X (x indicates that the number of wells in which suppression of bacterial growth was confirmed was 1 or less)"},
      {"measurement": "suppression of bacterial growth", "setting": "[2]; strain MR13", "value": "X (x indicates that the number of wells in which suppression of bacterial growth was confirmed was 1 or less)"},
      {"measurement": "suppression of bacterial growth", "setting": "[2]; strain MR14", "value": "Δ (Δ indicates that bacterial growth was suppressed in 2 wells out of 3 wells)"},
      {"measurement": "suppression of bacterial growth", "setting": "[2]; strain MR15", "value": "◯ (◯ indicates that bacterial growth was suppressed in all 3 wells)"},
      {"measurement": "suppression of bacterial growth", "setting": "[2]; strain MR16", "value": "X (x indicates that the number of wells in which suppression of bacterial growth was confirmed was 1 or less)"},
      {"measurement": "suppression of bacterial growth", "setting": "[2]; strain NM1", "value": "Δ (Δ indicates that bacterial growth was suppressed in 2 wells out of 3 wells)"},
      {"measurement": "suppression of bacterial growth", "setting": "[2]; strain NM2", "value": "Δ (Δ indicates that bacterial growth was suppressed in 2 wells out of 3 wells)"},
      {"measurement": "suppression of bacterial growth", "setting": "[2]; strain NM3", "value": "◯ (◯ indicates that bacterial growth was suppressed in all 3 wells)"},
      {"measurement": "suppression of bacterial growth", "setting": "[2]; strain NM4", "value": "◯ (◯ indicates that bacterial growth was suppressed in all 3 wells)"},
      {"measurement": "suppression of bacterial growth", "setting": "[2]; strain NM5", "value": "X (x indicates that the number of wells in which suppression of bacterial growth was confirmed was 1 or less)"}
    ]}
  ]
}
